Data set [1] is described as follows: Local (subcutaneous) pharmacokinetic study by dermal microdialysis after dermal administration of Huoxuezhitong rubber patch. To be noted: Sprague-Dawley, rat, subcutaneous (dermal) microdialysate, topical, male SD rats, mean ± SD, n = 6; for Cmax: maximum subcutaneous concentration, transdermal Huoxuezhitong rubber patch (3.46 cm2), removed after 720 min, corrected by RR; for AUC(0-t): subcutaneous concentration-time curve, read-out: AUC0-720 (converted); for AUC(0-t) / Tmax / MRT last / MRT inf / half-life: transdermal Huoxuezhitong rubber patch; for Tmax: subcutaneous tissue; for MRT last / MRT inf / half-life: subcutaneous; for MRT last: read-out: MRT0-720 (converted); for MRT inf: read-out: MRT0-∞ (converted); for half-life: terminal elimination half-life. The format is in vivo. On the procedure:
Before surgery, a rat with the hair on the abdomen shaved off was anesthetized with Urethane (1.5g/ kg, intraperitoneal injection). Its shell temperature was maintained at about 32.5°C during the experiment with the help of an infrared lamp. The linear microdialysis probe was inserted through a 23-gage intravenous needle. Subsequently, the needle was taken out, leaving the dialysis membranes horizontal under the hairless skin.
Implantation and pretreatment of the probe are the same as that described in Section 2.3. Then a round rubber patch (3.46 cm^2) was pasted on the hairless abdomen of the rat, respectively. After 720 min, the paste was scripted away. The skin was wiped softly and carefully to remove the residual drug. Simultaneously, another three samples was collected. If the rats suddenly died, the collection had to be terminated. All samples were immediately stored at 4°C until injected into the LC/MS/MS system for analysis. The sample concentration was corrected by RR.
The pharmacokinetics analysis was conducted by a noncompartmental approach using the Kinetica 5.1. The pharmacokinetics parameters, such as the maximum subcutaneous concentration (Cmax), time of reaching Cmax (Tmax), the area subcutaneous concentration-time curve (AUC0-t), the mean residence time (MRT), and the terminal elimination half-life (t1/2), were calculated on each individual analyte.

The conditions of data set [2]: cited from earlier work.

These results are taken from article PMC6354162, “Development of a MD-LC-MS/MS Method to Analyze 3 Bioactive Compounds in Huoxuezhitong Rubber Patch and Application to a Pharmacokinetic Study in Rats” (Evidence-based Complementary and Alternative Medicine : eCAM, 2019).

What is called Cmax is the highest concentration seen after dosing. In general, Tmax refers to the time from dosing to the highest level. Usually half-life stands for the time in which the quantity being followed falls by half.

Turning to `C=CCc1ccc(O)c(OC)c1` [eugenol], in data set [1], the concentration peaked (Cmax) at 18.9 ± 7.11 ng/mL, the AUC(0-t) was 119 ng·h/mL, the time of peak concentration (Tmax) was 4 h and the MRT last was 6.2 h. Also, in data set [1], the MRT inf was 7.77 h and the half-life was 228 ± 162 min. In addition, the Water solubility entry in data set [2] is recorded as “insoluble”.

`COc1ccc(C(C)=O)c(O)c1` [paeonol]: in data set [1], the peak concentration (Cmax) was 12.6 ± 3.29 ng/mL, the AUC(0-t) was 83.7 ng·h/mL, the time of peak concentration (Tmax) was 3.11 h and the MRT last was 6.06 h. Also, in data set [1], the MRT inf was 9.5 h and the half-life came to 337 ± 228 min. Further, the Water solubility in data set [2] was 349.8 µg/mL.

`O=C(/C=C/C=C/c1ccc2c(c1)OCO2)N1CCCCC1` [piperine]: in data set [1], the peak concentration (Cmax) stood at 1.8 ± 1.22 ng/mL, the AUC(0-t) is 14.7 ng·h/mL, the Tmax was 8.13 h and the MRT last was 9.17 h. Further, in data set [1], the MRT inf was 11.5 h and the half-life turned out to be 337 ± 44.4 min. In addition, the Water solubility entry in data set [2] is “insoluble”.
